In one assay the target is T1, COX-2 (Homo sapiens, UniProt P35354).
T1 construct: COX-2 expression is induced in mononuclear cells by treatment with lipopolysaccharide (LPS); endogenous in cells; host or cells: heparinized human whole blood (mononuclear cells, LPS-induced)
T1 sequence (P35354 18-604): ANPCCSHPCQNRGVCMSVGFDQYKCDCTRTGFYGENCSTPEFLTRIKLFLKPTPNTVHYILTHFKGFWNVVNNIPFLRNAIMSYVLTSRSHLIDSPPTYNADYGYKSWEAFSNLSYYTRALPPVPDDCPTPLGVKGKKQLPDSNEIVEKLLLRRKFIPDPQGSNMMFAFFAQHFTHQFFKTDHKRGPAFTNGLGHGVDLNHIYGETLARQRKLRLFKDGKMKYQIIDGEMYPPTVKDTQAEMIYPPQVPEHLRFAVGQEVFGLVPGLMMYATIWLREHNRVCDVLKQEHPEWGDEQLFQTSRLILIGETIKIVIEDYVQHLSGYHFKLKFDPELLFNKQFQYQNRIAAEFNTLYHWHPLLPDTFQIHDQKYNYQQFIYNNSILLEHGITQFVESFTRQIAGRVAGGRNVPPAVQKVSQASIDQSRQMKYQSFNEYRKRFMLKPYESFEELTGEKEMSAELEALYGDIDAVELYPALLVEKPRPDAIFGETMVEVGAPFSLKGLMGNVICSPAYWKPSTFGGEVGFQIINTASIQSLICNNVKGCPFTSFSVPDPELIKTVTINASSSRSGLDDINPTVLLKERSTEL
The experiment in a line: COX-2 inhibition in human whole blood (LPS-induced PGE2 production). Format: cell-based. Particulars: PGE2 after LPS 10 μg/mL overnight, average where more than one assay, read-out: COX-2_Blood IC50 [μM] (Avg). How it is done:
(§1) In vitro COX-1 and COX-2 inhibition is also determined in human whole blood where COX-1 is constitutively expressed in platelets and COX-2 expression is induced in mononuclear cells by treatment with lipopolysaccharide (LPS) (10 μg/mL). For this assay heparinized human blood is divided into two aliquots: one for measuring TxB2 production (a surrogate indicator of COX-1 activity) and a second for measuring PGE2 production (a surrogate for COX-2 activity). The blood samples are pretreated with test compounds for one hour before stimulation. Compounds are tested in a final concentration range from 0.1 nM to 300 μM using half log increases in concentrations. To measure inhibition of thromboxane B2 (TxB2) generation, A23187 (50 μM) is added, and the blood incubated for one hour. PGE2 production is measured after the addition of LPS (10 μg/mL) followed by overnight incubation. After incubation with A23187 or LPS the samples are centrifuged at 250×g for 10 minutes at 4° C. to collect serum. The amounts PGE2 and TxB2 present in the serum are measured using a chemiluminesence enzyme immunoassay from Assay Designs Inc. (Ann Arbor, Mich.). The levels of prostaglandin in each sample are normalized to the percent inhibition caused by each concentration of the test compound. The percent inhibition data for each donor is pooled and fitted to a 4-parameter logistic function using a regression.

For the next assay, the target named is T2, COX-1 (Homo sapiens, UniProt P23219).
T2 construct: COX-1 is constitutively expressed in platelets; endogenous in cells; host or cells: heparinized human whole blood (platelets, A23187-stimulated)
T2 sequence (P23219 24-599): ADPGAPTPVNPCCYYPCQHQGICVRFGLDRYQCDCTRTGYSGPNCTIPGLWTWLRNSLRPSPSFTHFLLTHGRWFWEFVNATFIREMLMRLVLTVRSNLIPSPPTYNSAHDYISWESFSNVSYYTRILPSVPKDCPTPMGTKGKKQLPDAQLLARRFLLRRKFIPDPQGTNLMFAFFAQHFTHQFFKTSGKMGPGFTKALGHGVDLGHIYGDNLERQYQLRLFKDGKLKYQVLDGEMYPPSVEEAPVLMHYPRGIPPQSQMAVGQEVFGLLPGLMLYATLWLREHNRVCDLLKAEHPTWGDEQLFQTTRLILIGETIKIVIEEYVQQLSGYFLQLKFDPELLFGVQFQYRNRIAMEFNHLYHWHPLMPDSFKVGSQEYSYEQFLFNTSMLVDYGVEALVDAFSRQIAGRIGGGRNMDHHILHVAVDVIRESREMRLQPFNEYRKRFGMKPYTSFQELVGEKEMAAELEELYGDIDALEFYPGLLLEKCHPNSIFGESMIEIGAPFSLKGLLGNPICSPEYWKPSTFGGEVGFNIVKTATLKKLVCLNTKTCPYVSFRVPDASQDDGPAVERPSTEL
The experiment in a line: COX-1 inhibition in human whole blood (A23187-stimulated TxB2 production). Format: cell-based. The settings on record: TxB2 after A23187 50 μM 1 h, average where more than one assay, read-out: COX-1_Blood IC50 [μM] (Avg). As for the experimental part: as §1

The structures appear in SMILES notation.

The term IC50 denotes the concentration that gives 50% inhibition.

Turning to `CCc1ccc(Nc2ccc(C)c(C(F)(F)F)c2F)c(CC(=O)O)c1` [Example 5a, 5-Ethyl-2-(2′-fluoro-4′-methyl-3′-trifluoromethylanilino)phenylacetic acid], the 50% inhibitory concentration (IC50) came to 0.1 µM at COX-2 and 155 µM on COX-1.

As for `CCc1c(Cl)ccc(Nc2ccc(C)cc2CC(=O)O)c1F` [Example 5k, 5-Methyl-2-(2′-fluoro-4′-chloro-3′-ethylanilino)phenylacetic acid], the figures for the IC50 at COX-2 and at COX-1 were 0.165 µM and 183 µM, respectively.

On to `Cc1ccc(Nc2ccc(Cl)c(C)c2F)c(CC(=O)O)c1` [Example 5i, 5-Methyl-2-(2′-fluoro-4′-chloro-3′-methylanilino)phenylacetic acid], for which the IC50 at COX-2 amounted to 0.295 µM; at COX-1, 129 µM.

For the compound `Cc1ccc(Nc2ccc(Cl)c(C)c2Cl)c(CC(=O)O)c1` [Example 5e, 5-Methyl-2-(2′,4′-dichloro-3′-methylanilino)phenylacetic acid], the IC50 at COX-2 was 0.073 µM; on COX-1, 126 µM.

For `CCc1ccc(Nc2ccc(Cl)c(C(C)C)c2F)c(CC(=O)O)c1` [Example 5m, 5-Ethyl-2-(2′-fluoro-4′-chloro-3′-isopropylanilino)phenylacetic acid], the IC50 was determined as 0.17 µM on COX-2 and 127 µM on COX-1.

These data come from US8586782B2, “Phenylacetic acid derivatives” (Novartis AG, priority 2006, dated 2013).
